Test results: patent US20240016781A1, “TREATMENT OF KRAS MUTANT CANCERS” (MEI Pharma, Inc., priority 2020, published 2024)

Tests used:
Test in all cases: 72-hour CellTiter-Glo 2.0 growth inhibition screen (single agent, 9x9 combination dose matrix)
Assay type in all cases: cell-based
[1] = system: Panc 04.03; conditions: Panc 04.03, Pancreas, 72 h
[2] = system: NCI-H358; conditions: NCl-H358, Lung, 72 h
[3] = system: SW837; conditions: SW837, Colorectal, 72 h
[4] = system: KYSE-410; conditions: KYSE-410, Esophageal, 72 h
[5] = system: HCC44; conditions: HCC44, Lung, 72 h
[6] = Additional Single Agent Responses (inhibition, % I)
[7] = Additional Single Agent Responses
[8] = growth inhibition (GI) curve, single agent
[9] = growth inhibition (GI), AUC, single agent
[10] = growth inhibition (GI), single agent

EC50 [1, 6]: 1310 nM
IC50 [1, 6]: 1410 nM
EC50 [1, 8]: 1740 nM
GI50 [1, 8]: 1300 nM
EC50 [2, 6]: 591 nM
IC50 [2, 6]: 628 nM
EC50 [2, 8]: 598 nM
GI50 [2, 8]: 585 nM
EC50 [3, 6]: 1990 nM
IC50 [3, 6]: 2090 nM
EC50 [3, 8]: 2100 nM
GI50 [3, 8]: 1750 nM
EC50 [5, 6]: 770 nM
IC50 [5, 6]: 829 nM
EC50 [5, 8]: 1210 nM
GI50 [5, 8]: 730 nM
Structure (SMILES): CN1CC[C@@H](c2c(O)cc(O)c3c(=O)cc(-c4ccc(C(F)(F)F)cc4Cl)oc23)[C@@H]1CO [MEI-522(Voruciclib)]
Response Area [1, 6]: 2.65
Max Response (% I) [1, 7]: 92 % I
Response Area [1, 9]: 4.67
Max Response (% GI) [1, 10]: 168 % GI
Response Area [2, 6]: 2.50
Max Response (% I) [2, 7]: 85 % I
Response Area [2, 9]: 3.61
Max Response (% GI) [2, 10]: 137 % GI
Response Area [3, 6]: 2.44
Max Response (% I) [3, 7]: 90 % I
Response Area [3, 9]: 4.48
Max Response (% GI) [3, 10]: 166 % GI
EC50 [4, 6]: 1740 nM
IC50 [4, 6]: 1900 nM
Response Area [4, 6]: 1.97
Max Response (% I) [4, 7]: 72 % I
EC50 [4, 8]: 1750 nM
GI50 [4, 8]: 1800 nM
Response Area [4, 9]: 2.41
Max Response (% GI) [4, 10]: 87 % GI
Response Area [5, 6]: 2.85
Max Response (% I) [5, 7]: 91 % I
Response Area [5, 9]: 4.97
Max Response (% GI) [5, 10]: 161 % GI
